Patent US11998602B2, “Methods for promoting myelination and for treating demyelinating diseases” (The Scripps Research Institute, priority 2018, dated 2024)

Columns and labels:
[1] = tested on: Rat primary optic nerve OPCs; assay: In vitro OPC differentiation assay, MBP expression by Western blot; type: cell-based
Protocol: (§1) Rat primary optic nerve OPCs were isolated by panning (>99% A2B5^+) and cultured in poly-D-lysine (10 μg/ml)-coated TC dishes in OPC culture media (Neurobasal Media, Invitrogen) supplemented with B27-without vitamin A (Invitrogen), 1× non-essential amino acids, 1× Glutamax, 1× anti-anti, β-mercaptoethanol and PDGF-AA (50 ng/ml; Peprotech) at 37° C. with 5% CO2. The culture medium was replaced every 48 h and cells were collected before the confluency reached 60% to maintain a naive state. For differentiation, OPCs were plated at 1 million cells in one 10 cm petri-dish filled with differentiation media, which is identical to the culture media, but with PDGF-AA at 2 ng/ml. T3 and DMSO were used as the positive control and negative control, respectively. Five replicates of cells were collected at different times (0, 3, and 6 days) for metabolomics studies.
Western blot analysis. OPCs were plated in basal differentiation medium at 1.7×10^5 cells/well and treated for 6 days with benztropine (0.5 μM), miconazole (2 μM) with and without the tested endogenous metabolites, T3 (1 μM) or DMSO. After washing with PBS, cells were collected in ice cold RIPA buffer containing protease and phosphatase inhibitors. Following incubation on ice for >20 min and sonication, lysed cells were centrifuged (16,000 g, 15 min at 4° C.). Total protein was quantified using a BCA analysis and 25 μg of protein from each sample was denatured by boiling with Bolt LDS Sample Buffer (4×) and Sample Reducing Agent (10×). Proteins were electrophoresed using Bolt 4-12% Bis-Tris gels (Life Technologies) and transferred to a PVDF membrane (Bio-Rad). The membrane was blocked with Odyssey PBS Blocking Buffer (LI-COR) and incubated overnight at 4° C. with anti-MBP (mouse, 1:2000) and anti-actin (mouse, 1:5000). Blots were incubated with […] secondary donkey anti-mouse antibody (LI-COR, 1:7500) and imaged using Odyssey CLx and Image Studio (LI-COR).

OPCs [2] = assay: Mitochondrial respiration assay (oxygen consumption rate, XFe96 Seahorse); type: cell-based, rat; conditions: 2 mM taurine, day 6, basal and benztropine- or miconazole-induced differentiation conditions
Protocol: Mitochondrial respiration assay. Cellular oxygen consumption rate (OCR) was measured using an XFe96 extracellular flux analyzer (Seahorse Biosciences). OPCs were seeded at 40,000 cells/well in PLP-coated XFe96 plates and cultured for 6 days with taurine (2 and 20 mM) alone, or together with miconazole and benztropine. Cells were then incubated in assay medium (DMEM with 20 mM glucose, 5 mM pyruvate and 5 mM sodium bicarbonate, pH˜7.4) for at least 30 min prior to the assay. Media to deliver a final assay well concentration corresponding to of 1 μM oligomycin, 2 μM carbonyl cyanide 4-(trifluoromethoxy) phenylhydrazone (FCCP) and 2 μM rotenone+2 μM antimycin A were pre-loaded into the compound delivery ports of the system. The assay starts with the recording of the basal OCR, followed by recording of the OCR in response to different compounds that constitute the Mitochondria Stress Test (Seahorse Biosciences, Agilent). Once the basal OCR was measured, the compounds were added sequentially and the effects on OCR measured 3 times every 5 min. Oligomycin blocks ATP synthase; FCCP dissipates the inner membrane potential enabling maximum electron flux through the electron transport chain (ETC); rotenone+antimycin A inhibit complexes I and III, respectively, thereby blocking the entry of electrons in the ETC and shutting down mitochondrial activity.

OPCs [3] = assay: Binary global metabolomics analysis of taurine co-treatment; type: cell-based, rat; conditions: for Cysteine pool, increase with taurine / Serine pool, increase with taurine / GSH level, increase with taurine / Cysteine level, increase with taurine / Serine level, increase with taurine: 20 mM taurine; for Cysteine pool, increase with taurine / Serine pool, increase with taurine: 3 days
Protocol: as §1
Global metabolomics and lipidomics. Cells incubated in differentiation medium were collected at Day 0, 3 and 6 for both the T3 and DMSO treated OPC. The cells were first rinsed with PBS twice to completely remove the culture medium and then scraped into a 1.5 mL Eppendorf vial using 500-1000 μL PBS. Subsequently, cells were collected by aspirating the supernatant after centrifugation at 1,000 rpm at 4° C. for 3 min. The global metabolites were extracted from cell pellets by a methanol:acetonitrile:water (2:2:1, v/v) solvent mixture. A volume of 600 μL of cold solvent was added to each pellet, vortexed for 30 s, and soaked in liquid nitrogen for 1 min. Samples were then allowed to thaw at room temperature and then sonicated for 10 min. This freeze-thaw process was repeated for additional twice. To further precipitate proteins, samples were incubated for 1 h at […], followed by centrifugation at 16,000 g at 4° C. for 15 min. The protein concentration of the cells was measured in the final pellet after centrifugation using BCA assay. The resulting supernatant was removed and evaporated to dryness in a vacuum concentrator (LABCONCO CentriVap Benchtop). The dry extracts were then reconstituted in the appropriate volume of acetonitrile/water (1:1, v/v), normalized by the protein concentration with the lowest concentration approximately 50 μL, sonicated for 10 min, and centrifuged for 15 min at 16,000 g and 4° C. to remove insoluble debris. The supernatants were transferred to HPLC vials with inserts and stored at −80° C. prior to LC/MS analysis. The Folch method was used to extract the lipids from OPCs treated with T3 and DMSO for 6 days. A mixture of 600 μL, chloroform/MeOH (2:1, v/v) was used in the freeze-thaw extraction method as described above, and a subsequent addition of 600 μL, of water was performed. Using this liquid-liquid extraction method, the organic phase was collected, dried and finally reconstituted in IPA/MeOH/H2O (5:1:4, v/v/v) before analysis.
Cell extracts were analyzed on a 6550 iFunnel QTOF mass spectrometer (Agilent Technologies) coupled with a 1290 UPLC system (Agilent Technologies). For global metabolomics, HPLC was carried out on a Luna Aminopropyl, 3 μm, 150 mm×1.0 mm I.D. HILIC column (Phenomenex). The mobile phase was composed of A=20 mM ammonium acetate and 40 mM ammonium hydroxide in 95% water (v/v) and B=95% acetonitrile. The remaining 5% components were either acetonitrile or water, respectively. A linear gradient from 100% B (0-5 min) to 100% A (50-55 min) was applied. A 10 min re-equilibration time was applied to the HILIC column for re-equilibration and maintenance of reproducibility. The flow rate was 50 μL/min, and the sample injection volume was 5 μL. ESI source conditions were set as follows: dry gas temperature, 200° C.; flow, 11 L/min, fragmentor, 380 V; sheath gas temperature, 300° C.; flow, 9 L/min; nozzle voltage, 500 V; capillary voltage, −500 V in ESI negative mode. The instrument was set to acquire data over the m/z range 50-1000, with the MS acquisition rate of 1 spectra/s. […]

## NCCS(=O)(=O)O [taurine, 2-aminoethanesulfonic acid]
[1]; 2 mM taurine added to benztropine (0.5 μM), 6 days
  MBP induction (Western blot), increase compared to benztropine-induced differentiation in the absence of taurine: 2.0 fold
[1]; 2 mM taurine added to miconazole (2 μM), 6 days
  MBP induction (Western blot), increase compared to miconazole-induced differentiation in the absence of taurine: 2.3 fold
[1]; added to benztropine- or miconazole-containing media
  Efficacy of induced OPC differentiation: dramatically increase
OPCs [2]
  Oxygen consumption rate (OCR) values: significantly increase
OPCs [3]; T3 1 μM
  Cysteine pool, increase with taurine: 58.8 fold
  Serine pool, increase with taurine: 17.1 fold
OPCs [3]; benztropine 0.5 μM
  Cysteine pool, increase with taurine: 154.4 fold
  Serine pool, increase with taurine: 10.0 fold
OPCs [3]; miconazole 2 μM
  Cysteine pool, increase with taurine: 76.5 fold
  Serine pool, increase with taurine: 19.4 fold
OPCs [3]; day 3, T3 1 μM
  GSH level, increase with taurine: 1.8 fold
OPCs [3]; day 6, T3 1 μM
  Cysteine level, increase with taurine: 26.6 fold
  GSH level, increase with taurine: 6.1 fold
  Serine level, increase with taurine: 2.1 fold
OPCs [3]; day 6, benztropine 0.5 μM
  Cysteine level, increase with taurine: 44.7 fold
  Serine level, increase with taurine: 13.4 fold
OPCs [3]; day 6, miconazole 2 μM
  Cysteine level, increase with taurine: 47.2 fold
  Serine level, increase with taurine: 92.5 fold
OPCs [3]; benztropine (0.5 μM) or miconazole (2 μM) treated cultures, both time points
  Changes in GSH and glutamate with taurine: only minimally altered
